These results are taken from US10070645B2, “N-cycloalkyl-N-{[2-(1-substitutedcycloalkyl)phenyl]methylene}-(thio)carboxamide derivatives” (BAYER CROPSCIENCE AKTIENGESELLSCHAFT, priority 2013, dated 2018).

Series [1] is described as follows: log P by HPLC on a reversed-phase column (C 18), EEC Directive 79/831 Annex V.A8. The following applies: for logP: 40° C., linear gradient 10% to 90% acetonitrile; for chromatographic logP: reversed-phase HPLC column (C 18). It counts as physicochemical. The procedure, abridged:
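Reversed-phase C18 HPLC at 40° C, 0.1% aqueous formic acid/acetonitrile gradient from 10% to 90% acetonitrile. log P derived from retention times by linear interpolation between unbranched alkan-2-ones (3–16 carbons) of known log P.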

Series [2] deals with Phakopsora pachyrhizi. The series is described as follows: In vivo preventive test on Phakopsora pachyrhizi (soybean rust). The following applies: for protection: dose of 10 ppm of active ingredient. As to the method: In Vivo Preventive Test on Phakopsora pachyrhizi (Soybean Rust)
Solvent: 24.5 parts by weight of acetone • 24.5 parts by weight of N,N-dimethylacetamide
Emulsifier: 1 part by weight of alkylaryl polyglycol ether
To produce a suitable preparation of active compound, 1 part by weight of active compound is mixed with the stated amounts of solvent and emulsifier, and the concentrate is diluted with water to the desired concentration.
To test for preventive activity, young plants are sprayed with the preparation of active compound at the stated rate of application. After the spray coating has dried on, the plants are inoculated with an aqueous spore suspension of the causal agent of soybean rust (Phakopsora pachyrhizi) and stay for 24 h without light in an incubation cabinet at approximately 24° C. and a relative atmospheric humidity of 95%.
The plants remain in the incubation cabinet at approximately 24° C. and a relative atmospheric humidity of approximately 80% and a day/night interval of 12 h.
The test is evaluated 7 days after the inoculation. 0% means an efficacy which corresponds to that of the untreated control, while an efficacy of 100% means that no disease is observed.

Series [3] deals with Uromyces appendiculatus. In words: In vivo preventive test on Uromyces appendiculatus (bean rust). Conditions: for protection: dose of 100 and 10 ppm of active ingredient. As to the method:
In Vivo Preventive Test on Uromyces appendiculatus (Bean Rust)
Solvent: 5% by volume of Dimethyl sulfoxide • 10% by volume of Acetone
Emulsifier: 1 μL of Tween® 80 per mg of active ingredient
The active ingredients are made soluble and homogenized in a mixture of Dimethyl sulfoxide/Acetone/Tween® 80 and then diluted in water to the desired concentration.
The young plants of bean are treated by spraying the active ingredient prepared as described above. Control plants are treated only with an aqueous solution of Acetone/Dimethyl sulfoxide/Tween® 80.
After 24 hours, the plants are contaminated by spraying the leaves with an aqueous suspension of Uromyces appendiculatus spores. The contaminated bean plants are incubated for 24 hours at 20° C. and at 100% relative humidity and then for 10 days at 20° C. and at 70-80% relative humidity.
The test is evaluated 11 days after the inoculation. 0% means an efficacy which corresponds to that of the control plants while an efficacy of 100% means that no disease is observed.

[4] abbreviates: HPLC, reversed-phase column (C 18), 0.1% aqueous formic acid and acetonitrile.
Setting [5] is: Table 4 (aldehydes of formula IV), HPLC C 18, 40° C., 0.1% aqueous formic acid and acetonitrile.
Where [6] appears, read: Table 3 (amines of formula II), HPLC C 18, 40° C., 0.1% aqueous formic acid and acetonitrile.

Values joined by “and” are separate entries in the source; they are usually repeats but may differ in a detail not shown here. Equal entries are not always repeated.

As to `CCC1(c2ccc(Cl)cc2CN(C(=O)c2c(C(F)F)nn(C)c2F)C2CC2)CC1` [I.110], the logP in series [1] (setting [4]) came out at 4.59. Besides, the Efficacy in series [2] (Table C2, dose 10 ppm) stood at 98%. Moreover, the protection result in series [2] is reported as “at least 90%”.
As to `Cc1ccc(C2(C)CC2)c(CN(C(=O)c2c(C(F)F)nn(C)c2F)C2CC2)c1` [I.071], the logP in series [1] (setting [4]) amounted to 4.19. Further, the Efficacy in series [2] (Table C1, dose 10 ppm) was 99%. In addition, in series [2], the protection result is reported as “at least 90%”.
As for `Cn1nc(C(F)F)c(C(=O)N(Cc2c(C3CC3)ccc(F)c2F)C2CC2)c1F` [54 from WO-2010/130767, N-cyclopropyl-N-(6-cyclopropyl-2,3-difluorobenzyl)-3-(difluoromethyl)-5-fluoro-1-methyl-1H-pyrazole-4-carboxamide, reference compound], the Efficacy in series [3] (Table B1, dose 10 ppm) is listed as 29%; in series [3] (Table B1, dose 100 ppm), 100%. Further, the protection result in series [3] is “total to poor (less than 30%) protection”.
In series [2] (Table C3, dose 10 ppm), `Cn1nc(C(F)F)c(C(=O)N(Cc2cc(F)ccc2C2CC2)C2CC2)c1F` [123 from WO-2010/130767, N-cyclopropyl-N-(2-cyclopropyl-5-fluorobenzyl)-3-(difluoromethyl)-5-fluoro-1-methyl-1H-pyrazole-4-carboxamide, reference compound] had an Efficacy of 0%. The protection entry in series [2] is “no protection”.
For the compound `CCC1(c2cc(C)c(F)cc2CN(C(=O)c2c(C(F)F)nn(C)c2F)C2CC2)CC1` [I.106], in series [1] (setting [4]), the logP is 4.67. The Efficacy in series [2] (Table C3, dose 10 ppm) is 100% and 98%.
Compound `Cc1ccc(C(F)(F)F)c(CN(C(=O)c2c(C(F)F)nn(C)c2F)C2CC2)c1` [12 from WO-2010/130767, N-cyclopropyl-3-(difluoromethyl)-5-fluoro-1-methyl-N-[5-methyl-2-(trifluoromethyl)benzyl]-1H-pyrazole-4-carboxamide, reference compound] showed an Efficacy in series [2] (Table C1, dose 10 ppm) of 0%. Moreover, the protection entry in series [2] is given as “no protection”.
Regarding `Cn1nc(C(F)F)c(C(=O)N(Cc2cc(F)ccc2C2(C(F)F)CC2)C2CC2)c1F` [I.151, N-cyclopropyl-3-(difluoromethyl)-N-{2-[1-(difluoromethyl)-cyclopropyl]-5-fluorobenzyl}-5-fluoro-1-methyl-1H-pyrazole-4-carboxamide], the chromatographic logP in series [1] (preparation examples) worked out at 3.39. Also, the Efficacy in series [3] (Table B1, dose 10 ppm) is reported as 100%; in series [3] (Table B1, dose 100 ppm), 100%. In series [3], the protection result is on record as “total protection”.
`Cn1nc(C(F)F)c(C(=O)N(Cc2cc(Cl)ccc2C2CC2)C2CC2)c1F` [41 from WO-2010/130767, N-(5-chloro-2-cyclopropylbenzyl)-N-cyclopropyl-3-(difluoromethyl)-5-fluoro-1-methyl-1H-pyrazole-4-carboxamide, reference compound] gave an Efficacy in series [2] (Table C2, dose 10 ppm) of 0%. The protection result in series [2] is reported as “no protection”.
`CC1(c2cc(F)ccc2C=O)CC1` [IV.03, 4-fluoro-2-(1-methylcyclopropyl)benzaldehyde] returned a chromatographic logP in series [1] (setting [5]) of 3.15.
As for `CCCC1(c2ccc(C)cc2CN(C(=O)c2c(C(F)F)nn(C)c2Cl)C2CC2)CC1` [I.131], the logP in series [1] (setting [4]) came out at 5.19.
On the same count and under the same terms, the same measure for `CCC1(c2cc(C)ccc2CN(C(=O)c2c(C(F)F)nn(C)c2Cl)C2CC2)CC1` [I.105]: 4.74; for `Cn1nc(C(F)F)c(C(=S)N(Cc2cccc(F)c2C2(C)CC2)C2CC2)c1Cl` [I.011]: 4.64.
In the case of `FC(F)C1(c2ccccc2CNC2CC2)CC1` [II.36, N-{2-[1-(difluoromethyl)cyclopropyl]benzyl}cyclopropanamine], the chromatographic logP in series [1] (setting [6]) is 0.92.
In turn, `COC1(c2ccc(Cl)cc2CN(C(=O)c2c(C(F)F)nn(C)c2Cl)C2CC2)CC1` [I.119] showed a logP in series [1] (setting [4]) of 3.87.
Regarding `Cc1ccc(CNC2CC2)c(C2(C)CC2)c1` [II.05, N-[4-methyl-2-(1-methylcyclopropyl)benzyl]cyclopropanamine], the chromatographic logP in series [1] (setting [6]) came out at 1.43.
On the same count and under the same terms, the same measure for `Cc1ccc(C2(C#N)CC2)c(CNC2CC2)c1` [II.21, 1-{2-[(cyclopropylamino)methyl]-4-methylphenyl}cyclopropanecarbonitrile]: 1.19.
Compound `Cc1ccc(C2(CC(C)C)CC2)c(CNC2CC2)c1` [II.43, N-[2-(1-isobutylcyclopropyl)-5-methylbenzyl]cyclopropanamine] had a chromatographic logP in series [1] (setting [6]) of 2.15.
Compound `Cn1nc(C(F)F)c(C(=O)N(Cc2ccc(-c3cccnc3)cc2C2(C)CC2)C2CC2)c1F` [I.044] yielded a logP in series [1] (setting [4]) of 2.35.
In turn, `CCC1(c2ccc(C(F)(F)F)cc2CN(C(=O)c2c(C(F)F)nn(C)c2Cl)C2CC2)CC1` [I.109] displayed a logP in series [1] (setting [4]) of 4.85.
`Cn1nc(C(F)F)c(C(=O)N(Cc2cc(-c3csc4ccccc34)ccc2C2(C)CC2)C2CC2)c1F` [I.081] yielded a logP in series [1] (setting [4]) of 5.48.
`CC1(c2ccc(Cl)cc2Br)CC1` [2-bromo-4-chloro-1-(1-methylcyclopropyl)benzene]: the chromatographic logP in series [1] (preparation examples) is 4.93.
As for `Cn1nc(C(F)F)c(C(=O)N(Cc2cc(Cl)ccc2C2(C(F)F)CC2)C2CC2)c1F` [I.149], in series [1] (setting [4]), the logP worked out at 3.70.
Turning to `COCC1(c2ccc(C)cc2CN(C(=O)c2c(C(F)F)nn(C)c2Cl)C2CC2)CC1` [I.183], in series [1] (HPLC on reversed-phase column (C 18), 0.1% aqueous formic acid and acetonitrile), the logP was found to be 3.68.
`Cn1nc(C(F)F)c(C(=O)N(Cc2ccccc2C2(C)CC2)C2CC2)c1Cl` [I.002] displayed a logP in series [1] (setting [4]) of 4.01.
Compound `Cn1nc(C(F)F)c(C(=O)N(Cc2cc(C3CC3)ccc2C2(C)CC2)C2CC2)c1F` [I.064] yielded a logP in series [1] (setting [4]) of 4.56.
Compound `Cn1nc(C(F)F)c(C(=S)N(Cc2cc(Cl)ccc2C2(C)CC2)C2CC2)c1Cl` [I.063] came in with a logP in series [1] (setting [4]) of 5.03.
Consider `Cn1nc(C(F)F)c(C(=O)N(Cc2cccc(F)c2C2(C)CC2)C2CC2)c1F` [I.008], for which the logP in series [1] (setting [4]) is reported as 3.89.
As to `Cn1nc(C(F)F)c(C(=O)N(Cc2c(C3(C)CC3)ccc(Cl)c2Cl)C2CC2)c1F` [I.085], the logP in series [1] (setting [4]) is given as 4.51.
On the same count and under the same terms, the same measure for `Cn1nc(C(F)F)c(C(=S)N(Cc2cc(F)ccc2C2(C)CC2)C2CC2)c1Cl` [I.069]: 4.64; for `Cc1ccc(C2(C)CC2)c(CN(C(=O)c2c(C(F)F)nn(C)c2F)C2(C)CC2)c1` [I.075]: 4.51; for `COC1(c2ccc(-c3ccoc3)cc2CN(C(=O)c2c(C(F)F)nn(C)c2F)C2CC2)CC1` [I.125]: 3.80.
`COc1cc(C=O)c(C2(C)CC2)cc1OC` [IV.08, 4,5-dimethoxy-2-(1-methylcyclopropyl)benzaldehyde] registered a chromatographic logP in series [1] (setting [5]) of 2.56.
With `Cc1ccc(CN(C(=O)c2c(C(F)F)nn(C)c2F)C2CC2)c(C2(C)CC2)c1` [I.026], the logP in series [1] (setting [4]) turned out to be 4.21.
In turn, `Cn1nc(C(F)F)c(C(=O)N(Cc2c(C(F)(F)F)cccc2C2(C)CC2Cl)C2CC2)c1F` (stereo not shown) [I.141] yielded a lipophilicity (logP) in series [1] (setting [4]) of 4.46.
In the case of `CC1(c2ccc(Cl)cc2C=O)CC1` [IV.10, 5-chloro-2-(1-methylcyclopropyl)benzaldehyde], in series [1] (setting [5]), the chromatographic logP is 3.76.
On to `CC(C)CC1(c2cc(Cl)ccc2CN(C(=O)c2c(C(F)F)nn(C)c2F)C2CC2)CC1` [I.157], for which, in series [1] (setting [4]), the logP came out at 5.42.
The same measure, in the same setting: the same measure for `Cn1nc(C(F)F)c(C(=O)N(Cc2ccc(-c3ccncc3)cc2C2(C)CC2)C2CC2)c1F` [I.045]: 2.00; for `CCOC1(c2ccc(C)cc2CN(C(=O)c2c(C(F)F)nn(C)c2F)C2CC2)CC1` [I.139]: 4.06.
In turn, `Cn1nc(C(F)F)c(C(=O)N(Cc2ccc(-c3ccc(F)cc3)cc2C2(C)CC2)C2CC2)c1F` [I.041] yielded a logP in series [1] (setting [4]) of 4.96.
